From ChEMBL document CHEMBL3217601, “Optimized glucuronidation of dual pharmacology -2 agonists/M3 antagonists for the treatment of COPD” (Medchemcomm, 2011)
Each block holds one compound with its values, some of them ahead of it. The source made the active and inactive calls. No cut-off for these calls is given here.

Experiments:
[1] = Drug metabolism in human hepatocytes assessed as formation of phenol glucuronide and sulfate metabolite by LC/MS/MS analysis; assay type: ADME, cell-based, Hepatocyte
[2] = biological target: Beta-2 adrenergic receptor (Cavia porcellus, UniProt Q8K4Z4); test: Agonist activity at beta-2 adrenoceptor in guinea pig trachea assessed as inhibition of histamine-induced muscle contraction
Chain of Beta-2 adrenergic receptor (Cavia porcellus, UniProt Q8K4Z4) (Q8K4Z4 whole entry): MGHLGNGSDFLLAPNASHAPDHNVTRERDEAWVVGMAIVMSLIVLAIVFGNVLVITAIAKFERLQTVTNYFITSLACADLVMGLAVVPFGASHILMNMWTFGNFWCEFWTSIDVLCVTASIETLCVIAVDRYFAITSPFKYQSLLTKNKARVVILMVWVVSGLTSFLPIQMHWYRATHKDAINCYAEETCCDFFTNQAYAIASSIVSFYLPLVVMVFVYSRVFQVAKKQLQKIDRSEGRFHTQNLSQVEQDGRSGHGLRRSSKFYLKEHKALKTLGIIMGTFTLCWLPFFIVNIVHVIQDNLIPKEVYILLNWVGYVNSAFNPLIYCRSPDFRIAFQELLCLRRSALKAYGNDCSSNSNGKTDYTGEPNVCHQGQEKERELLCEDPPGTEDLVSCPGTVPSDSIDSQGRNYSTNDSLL

[3] = Intrinsic clearance in human liver microsomes assessed as glucuronidation in absence of NADPH and presence of microsomal activator Brij58 and UDPGA
Cavia porcellus [4] = organism: Cavia porcellus; test: Modulation of beta-2 adrenoceptor/muscarinic M3 receptor in guinea pig trachea assessed as time taken for muscle tone at submaximal concentration of compound to recover by 50% of inhibition induced; assay type: tissue-based
[5] = biological target: Muscarinic acetylcholine receptor M3 (Cavia porcellus) (UniProt Q8VH26); test: Antagonist activity at muscarinic M3 receptor in guinea pig trachea assessed as time taken for muscle tone at submaximal concentration of compound to recover by 50% of inhibition induced in presence of propranolol
Chain of Muscarinic acetylcholine receptor M3 (Cavia porcellus) (Q8VH26 1-587): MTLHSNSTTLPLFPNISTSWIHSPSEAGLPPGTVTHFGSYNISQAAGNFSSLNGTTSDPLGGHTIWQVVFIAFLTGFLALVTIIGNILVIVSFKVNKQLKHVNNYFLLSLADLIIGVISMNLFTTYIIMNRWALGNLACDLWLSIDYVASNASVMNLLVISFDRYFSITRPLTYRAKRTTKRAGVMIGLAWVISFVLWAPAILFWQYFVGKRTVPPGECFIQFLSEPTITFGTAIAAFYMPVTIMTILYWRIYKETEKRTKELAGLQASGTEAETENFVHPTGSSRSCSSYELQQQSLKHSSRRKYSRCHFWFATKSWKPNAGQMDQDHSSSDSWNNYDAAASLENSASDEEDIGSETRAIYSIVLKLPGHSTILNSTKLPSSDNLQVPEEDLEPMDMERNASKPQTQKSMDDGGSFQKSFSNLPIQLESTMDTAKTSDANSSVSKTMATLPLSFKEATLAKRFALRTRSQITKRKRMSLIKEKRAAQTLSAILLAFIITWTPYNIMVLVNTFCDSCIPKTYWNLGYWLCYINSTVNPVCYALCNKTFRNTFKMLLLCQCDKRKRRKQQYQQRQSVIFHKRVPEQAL

Oryctolagus cuniculus = organism: Oryctolagus cuniculus; test: Toxicity in rabbit cough model; assay type: organism-based; settings: in vivo
[6] = Drug metabolism of the compound in human liver microsomes assessed as glucuronidation in absence of NADPH and presence of microsomal activator Brij58 and UDPGA
Salmonella typhimurium = test: Genotoxicity in Salmonella typhimurium assessed by Ames test; assay type: toxicity, organism-based; settings: salmonella enterica subsp. enterica serovar typhimurium
Canis familiaris [7] = test: Bronchodilatory activity in intratracheally dosed dog assessed as inhibition of methacholine-induced bronchoconstriction in presence of propranolol; assay type: functional, organism-based; settings: Canis lupus familiaris
Cavia porcellus [8] = organism: Cavia porcellus; test: Bronchodilatory activity in guinea pig in presence of NK2 agonist BANA; assay type: functional, organism-based
[9] = biological target: T1, Beta-2 adrenergic receptor (Homo sapiens, UniProt P07550); test: Ratio of EC50 for human beta-2 adrenoceptor measured after drug washout to EC50 for human beta-2 adrenoceptor
Target sequence in this assay (P07550 whole entry, looked up): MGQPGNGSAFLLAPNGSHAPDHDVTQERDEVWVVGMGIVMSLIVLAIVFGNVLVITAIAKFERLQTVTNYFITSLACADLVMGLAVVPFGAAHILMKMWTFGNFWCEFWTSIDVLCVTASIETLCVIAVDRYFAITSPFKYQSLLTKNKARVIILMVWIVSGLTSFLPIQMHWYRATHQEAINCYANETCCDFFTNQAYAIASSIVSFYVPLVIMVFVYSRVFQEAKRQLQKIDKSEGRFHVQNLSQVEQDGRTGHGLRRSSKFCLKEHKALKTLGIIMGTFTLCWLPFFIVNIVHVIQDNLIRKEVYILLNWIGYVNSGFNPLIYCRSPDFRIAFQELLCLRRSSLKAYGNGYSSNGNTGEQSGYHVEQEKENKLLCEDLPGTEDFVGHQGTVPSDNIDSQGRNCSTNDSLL

[10] = Clearance in rat at 2 mg/kg, iv; assay type: ADME, organism-based; set-up: dose 2 mg/kg, route intravenous; settings: in vivo
[11] = AUC in rat at 2 mg/kg, iv; assay type: ADME, organism-based; set-up: dose 2 mg/kg, route intravenous; settings: plasma
[12] = biological target: Beta-1 adrenergic receptor (Homo sapiens, UniProt P08588); test: Agonist activity at beta-1 adrenoceptor (unknown origin)
Chain of Beta-1 adrenergic receptor (P08588 whole entry): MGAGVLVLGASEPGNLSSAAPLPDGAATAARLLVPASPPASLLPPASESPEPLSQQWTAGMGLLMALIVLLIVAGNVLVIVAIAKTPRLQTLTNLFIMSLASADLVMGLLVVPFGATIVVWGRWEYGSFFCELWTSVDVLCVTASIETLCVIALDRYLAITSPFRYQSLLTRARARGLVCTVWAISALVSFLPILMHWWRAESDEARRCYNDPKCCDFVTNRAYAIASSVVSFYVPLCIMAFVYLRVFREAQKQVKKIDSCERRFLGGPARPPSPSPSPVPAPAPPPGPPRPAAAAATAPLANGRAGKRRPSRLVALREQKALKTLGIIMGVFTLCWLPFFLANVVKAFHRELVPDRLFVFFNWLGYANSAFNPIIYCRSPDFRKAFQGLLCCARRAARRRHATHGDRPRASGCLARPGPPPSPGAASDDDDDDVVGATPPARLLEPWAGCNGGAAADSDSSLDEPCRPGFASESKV

[13] = Modulation of beta-2 adrenoceptor/muscarinic M3 receptor in guinea pig trachea assessed as inhibition of electric field stimulated muscle contraction by measuring release of endogenous acetylcholine; assay type: tissue-based, Cavia porcellus
Canis familiaris [14] = test: Bronchodilatory activity in intratracheally dosed dog assessed as duration of inhibition of methacholine-induced bronchoconstriction; assay type: functional, Canis lupus familiaris
Canis familiaris [15] = test: Bronchodilatory activity in intratracheally dosed dog assessed as inhibition of methacholine-induced bronchoconstriction; assay type: functional, Canis lupus familiaris
Canis familiaris [16] = test: Bronchodilatory activity in intratracheally dosed dog assessed as inhibition of methacholine-induced bronchoconstriction in presence of NK2 agonist BANA; assay type: functional, organism-based; settings: Canis lupus familiaris
[17] = biological target: T2, Muscarinic acetylcholine receptor M3 (Homo sapiens, UniProt P20309); test: Displacement of [3H]-N-methyl scopolamine from human cloned muscarinic M3 receptor
Target sequence in this assay (P20309 whole entry): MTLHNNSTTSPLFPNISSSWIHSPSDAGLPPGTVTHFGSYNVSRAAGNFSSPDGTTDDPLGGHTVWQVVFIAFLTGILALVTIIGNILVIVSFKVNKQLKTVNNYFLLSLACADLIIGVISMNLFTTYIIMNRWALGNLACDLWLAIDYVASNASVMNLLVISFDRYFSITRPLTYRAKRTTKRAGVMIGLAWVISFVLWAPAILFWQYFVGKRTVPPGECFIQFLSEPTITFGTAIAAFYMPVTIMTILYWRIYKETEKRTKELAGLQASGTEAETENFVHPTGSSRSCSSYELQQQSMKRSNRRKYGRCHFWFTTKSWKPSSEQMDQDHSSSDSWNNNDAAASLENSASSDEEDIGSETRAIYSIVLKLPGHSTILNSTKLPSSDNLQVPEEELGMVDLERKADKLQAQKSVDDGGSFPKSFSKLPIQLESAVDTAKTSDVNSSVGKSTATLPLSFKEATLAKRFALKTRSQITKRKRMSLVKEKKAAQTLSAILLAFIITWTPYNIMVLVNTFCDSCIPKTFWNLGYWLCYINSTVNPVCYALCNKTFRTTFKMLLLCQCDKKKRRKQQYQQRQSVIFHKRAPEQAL

Cavia porcellus [18] = organism: Cavia porcellus; test: Bronchodilatory activity in guinea pig in presence of propranolol; assay type: functional, organism-based
[19] = Stability of the compound at 70 degC and 75% relative humidity assessed as impurity after 7 days; assay type: physicochemical; settings: 168 h
[20] = biological target: T2, Muscarinic acetylcholine receptor M3; test: Displacement of [3H]-N-methyl scopolamine from human cloned muscarinic M3 receptor assessed as time taken to reach 50% of total [3H]-NMS
Target sequence in this assay (P20309 whole entry, looked up): as the sequence (P20309 whole entry) above

[21] = Genotoxicity in micronucleus (unknown origin)
[22] = AUC in rat at 0.2 mg/kg, po; assay type: ADME, organism-based; set-up: dose 0.2 mg/kg, route oral; settings: plasma
[23] = AUC in guinea pig at 0.2 mg/kg, po; assay type: ADME, organism-based, Cavia porcellus; set-up: dose 0.2 mg/kg, route oral; settings: plasma
[24] = biological target: T1, Beta-2 adrenergic receptor; test: Agonist activity at human beta-2 adrenoceptor expressed in CHO cells assessed as stimulation of intracellular cAMP production; assay type: functional, cell-based
Target sequence in this assay (P07550 whole entry): as the sequence (P07550 whole entry, looked up) above

[25] = Half life in guinea pig at 0.2 mg/kg, po; assay type: ADME, organism-based, Cavia porcellus; set-up: dose 0.2 mg/kg, route oral; settings: in vivo
[26] = Half life in rat at 0.2 mg/kg, po; assay type: ADME, organism-based; set-up: dose 0.2 mg/kg, route oral; settings: in vivo
[27] = biological target: Muscarinic acetylcholine receptor M3 (Cavia porcellus, UniProt Q8VH26); test: Antagonist activity at muscarinic M3 receptor in guinea pig trachea assessed as inhibition of electric field stimulated muscle contraction by measuring release of endogenous acetylcholine in presence of propranolol
Chain of Muscarinic acetylcholine receptor M3 (Cavia porcellus, UniProt Q8VH26) (Q8VH26 whole entry): as the sequence (Q8VH26 1-587) above

[28] = Clearance in guinea pig at 0.2 mg/kg, po; assay type: ADME, organism-based, Cavia porcellus; set-up: dose 0.2 mg/kg, route oral; settings: in vivo
[29] = Clearance in rat at 0.2 mg/kg, po; assay type: ADME, organism-based; set-up: dose 0.2 mg/kg, route oral; settings: in vivo
[30] = Therapeutic index, ratio of cardiovascular toxicity in dog to bronchodilatory activity in intratracheally dosed dog; assay type: organism-based, Canis lupus familiaris, Trachea; settings: in vivo, inhaled or intranasal, read-out: TI

Structure (SMILES): CS(=O)(=O)Nc1cc([C@@H](O)CNCCCCCCCCCN2C[C@@H]3[C@@H](COC(=O)Nc4ccccc4-c4ccc(O)c(Cl)c4)[C@@H]3C2)ccc1O
- microsomal CLint [3]: 7 µL/min/mg
- microsomal CLint [6]: 13 µL/min/mg
- EC50 [12]: > 10 µM
- Ki [17]: 0.0013 µM
- EC50 [24]: 0.042 µM

Structure (SMILES): CS(=O)(=O)Nc1cc([C@@H](O)CNCCCCCCCCCN2CCC(OC(=O)Nc3ccccc3-c3ccccc3)CC2)ccc1O
- microsomal CLint [3]: 40 µL/min/mg
- microsomal CLint [6]: < 2 µL/min/mg
- EC50 [12]: > 10 µM
- Ki [17]: 0.00039 µM
- EC50 [24]: 0.074 µM

Structure (SMILES): CS(=O)(=O)Nc1cc([C@@H](O)CNCCc2ccc(OCCCN3CCC(OC(=O)Nc4ccccc4-c4ccc(O)c(Cl)c4)CC3)cc2)ccc1O
- microsomal CLint [3]: 33 µL/min/mg
- microsomal CLint [6]: 29 µL/min/mg
- EC50 [12]: > 10 µM
- Ki [17]: 0.0031 µM
- EC50 [24]: 0.013 µM

Structure (SMILES): CS(=O)(=O)Nc1cc([C@@H](O)CNCCCCCCCCCN2CCC(OC(=O)Nc3ccccc3-c3cc(C#N)ccc3O)CC2)ccc1O
- microsomal CLint [3]: 33 µL/min/mg
- microsomal CLint [6]: 3.7 µL/min/mg
- EC50 [12]: > 10 µM
- Ki [17]: > 0.073 µM

Structure (SMILES): CS(=O)(=O)Nc1cc([C@@H](O)CNCCCCCCCCCN2CCC(OC(=O)Nc3ccccc3-c3cccc(F)c3O)CC2)ccc1O
- microsomal CLint [6]: < 2 µL/min/mg
- EC50 [12]: > 10 µM
- Ki [17]: 0.01 µM

Structure (SMILES): CS(=O)(=O)Nc1cc([C@@H](O)CNCCCCCCCCCN2C[C@H]3C[C@@]3(COC(=O)Nc3ccccc3-c3ccc(O)c(Cl)c3)C2)ccc1O
- microsomal CLint [3]: 49 µL/min/mg
- microsomal CLint [6]: 28 µL/min/mg
- EC50 [12]: > 10 µM
- Ki [17]: 0.0043 µM
- EC50 [24]: 0.017 µM

Structure (SMILES): OCc1cc(C(O)CNCCCCCCOCCCCc2ccccc2)ccc1O (centres undefined) [SALMETEROL]
- selectivity ratio [30]: 3

Second part, led by results:

- Drug metabolism [1]: Active
- EC50 [2]: 0.0058 µM
- microsomal CLint [3]: 23 µL/min/mg
- TIME (Cavia porcellus [4]): > 11 h
- TIME [5]: > 11 h
- microsomal CLint [6]: 24 µL/min/mg
- Ratio EC50 [9]: 1.5
- clearance [10]: 164 mL/min/kg
- AUC [11]: 125 ng·h/mL
- EC50 [12]: > 10 µM
- EC50 [13]: 0.0073 µM
- Ki [17]: 0.00073 µM
- Stability [19]: Stable
- TIME [20]: 1.95 h
- AUC [22]: 256 ng·h/mL
- AUC [23]: 920 ng·h/mL
- EC50 [24]: 0.0037 µM
- half-life [25]: 0.8 h
- half-life [26]: 1.6 h
- EC50 [27]: 0.012 µM
- CL/F [28]: 3.6 mL/min/kg
- CL/F [29]: 14 mL/min/kg
Structure (SMILES): CS(=O)(=O)Nc1cc([C@@H](O)CNCCCCCCCCCN2CCC(OC(=O)Nc3ccccc3-c3ccc(O)c(Cl)c3)CC2)ccc1O
- Activity (Oryctolagus cuniculus): Non-toxic
- Activity (Salmonella typhimurium): Non-toxic
- Activity (Canis familiaris [7]): Active
- Activity (Cavia porcellus [8]): Active
- Time (Canis familiaris [14]): 14 h
- ID50 (Canis familiaris [15]): 50 µg
- Activity (Canis familiaris [16]): Active
- Activity (Cavia porcellus [18]): Active
- Activity [21]: Non-toxic

- microsomal CLint [3]: 15 µL/min/mg
- microsomal CLint [6]: 6 µL/min/mg
- EC50 [12]: > 10 µM
- Ki [17]: 0.0044 µM
- EC50 [24]: 0.057 µM
Structure (SMILES): CS(=O)(=O)Nc1cc([C@@H](O)CNCCCCCCCCCN2CCC(OC(=O)Nc3cc(F)ccc3-c3ccc(O)c(Cl)c3)CC2)ccc1O

- microsomal CLint [3]: 16 µL/min/mg
- microsomal CLint [6]: 30 µL/min/mg
- EC50 [12]: > 10 µM
- Ki [17]: 0.005 µM
- EC50 [24]: 0.026 µM
Structure (SMILES): CS(=O)(=O)Nc1cc([C@@H](O)CNCCCCCCCCCN2CCC(OC(=O)Nc3ccccc3-c3ccc(O)c(F)c3)CC2)ccc1O

- microsomal CLint [3]: 26 µL/min/mg
- microsomal CLint [6]: < 3.5 µL/min/mg
- EC50 [12]: > 10 µM
- Ki [17]: 0.0037 µM
- EC50 [24]: 0.129 µM
Structure (SMILES): CS(=O)(=O)Nc1cc([C@@H](O)CNCCCCCCCCCN2CCC(OC(=O)Nc3ccccc3-c3cccc(O)c3)CC2)ccc1O

- microsomal CLint [3]: 39 µL/min/mg
- microsomal CLint [6]: 51 µL/min/mg
- EC50 [12]: > 10 µM
- Ki [17]: 0.0092 µM
- EC50 [24]: 0.024 µM
Structure (SMILES): CS(=O)(=O)Nc1cc([C@@H](O)CNCCCCCCCCCN2CC[C@@H](OC(=O)Nc3ccccc3-c3ccc(O)c(Cl)c3)C2)ccc1O

- microsomal CLint [3]: 29 µL/min/mg
- microsomal CLint [6]: 6 µL/min/mg
- EC50 [12]: > 10 µM
- Ki [17]: 0.002 µM
- EC50 [24]: 0.014 µM
Structure (SMILES): Cc1ccc(-c2ccc(O)c(Cl)c2)c(NC(=O)OC2CCN(CCCCCCCCCNC[C@H](O)c3ccc(O)c(NS(C)(=O)=O)c3)CC2)c1

- microsomal CLint [3]: 17 µL/min/mg
- microsomal CLint [6]: 24 µL/min/mg
- EC50 [12]: > 10 µM
- Ki [17]: 0.0011 µM
- EC50 [24]: 0.02 µM
Structure (SMILES): CS(=O)(=O)Nc1cc([C@@H](O)CNCCCCCCCCN2CCC(OC(=O)Nc3ccccc3-c3ccc(O)c(Cl)c3)CC2)ccc1O
